The subject of one assay is Notch1. In words: Notch1 activity in MCF7, MDA-MB-231 and BT474 cells. The class given is cell-based.
For a further assay, the system named is Notch4. In words: Notch4 activity in MCF7, MDA-MB-231 and BT474 cells. The assay is classed as cell-based.

The values that follow come from patent US20160376659A1, “Breast Cancer Biomarker” (The University of Manchester, priority 2015, published 2016).

“Also recorded” adds a separate entry of the source.

Consider `C[C@H](NC(=O)Cc1cc(F)cc(F)c1)C(=O)N[C@H](C(=O)OC(C)(C)C)c1ccccc1` [DAPT], for which the Notch1 activity entry in the assay with Notch1 is listed as “inhibit”. Also, in the assay on Notch4, the Notch4 activity result is “no Notch4; also recorded: not NOTCH4 activity”.

Consider `C[C@H](NC(=O)Cc1cc(F)cc(F)c1)C(=O)N[C@@H]1C(=O)N(C)c2ccccc2-c2ccccc21` [DBZ], for which the Notch1 activity entry in the assay with Notch1 is listed as “inhibit”. The Notch4 activity entry with Notch4 is given as “no Notch4; also recorded: not NOTCH4 activity”.
